According to PubChem BioAssay (NCI):
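Assay format: 96-well plates, 48-hour exposure. GI50 marks 50% less growth. TGI: concentration producing complete growth inhibition.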

Assays:
Test in all cases: inhibition of tumour cell growth, NCI panel, 48 h
UO-31 renal = test system: UO-31 renal
SK-MEL-28 melanoma = test system: SK-MEL-28 melanoma
TK-10 renal = test system: TK-10 renal
RXF 393 renal = test system: RXF 393 renal
U251 CNS = test system: U251 CNS
MDA-MB-435 = test system: MDA-MB-435
NCI-H23 lung = test system: NCI-H23 lung
SNB-75 CNS = test system: SNB-75 CNS
OVCAR-5 ovarian = test system: OVCAR-5 ovarian
SF-295 CNS = test system: SF-295 CNS
NCI-H226 lung = test system: NCI-H226 lung
SNB-19 CNS = test system: SNB-19 CNS
EKVX NSCLC = test system: EKVX NSCLC
NCI/ADR-RES ovarian = test system: NCI/ADR-RES ovarian
MALME-3M melanoma = test system: MALME-3M melanoma
HOP-92 NSCLC = test system: HOP-92 NSCLC
MDA-MB-231 breast = test system: MDA-MB-231 breast
DU-145 prostate = test system: DU-145 prostate
OVCAR-3 ovarian = test system: OVCAR-3 ovarian
UACC-257 melanoma = test system: UACC-257 melanoma
PC-3 prostate = test system: PC-3 prostate
M14 melanoma = test system: M14 melanoma
UACC-62 melanoma = test system: UACC-62 melanoma
COLO 205 colon = test system: COLO 205 colon
A549 NSCLC = test system: A549 NSCLC
HCT-116 colon = test system: HCT-116 colon
A498 renal = test system: A498 renal
K-562 leukemia = test system: K-562 leukemia
SK-MEL-2 melanoma = test system: SK-MEL-2 melanoma
ACHN renal = test system: ACHN renal
HS 578T breast = test system: HS 578T breast
HCT-15 colon = test system: HCT-15 colon
MCF7 breast = test system: MCF7 breast
HOP-62 NSCLC = test system: HOP-62 NSCLC
SK-MEL-5 melanoma = test system: SK-MEL-5 melanoma
OVCAR-8 ovarian = test system: OVCAR-8 ovarian
CAKI-1 renal = test system: CAKI-1 renal
HL-60(TB) leukemia = test system: HL-60(TB) leukemia
KM12 colon = test system: KM12 colon
CCRF-CEM leukemia = test system: CCRF-CEM leukemia
BT-549 breast = test system: BT-549 breast
T-47D breast = test system: T-47D breast
HT29 colon = test system: HT29 colon
IGROV1 ovarian = test system: IGROV1 ovarian
NCI-H522 lung = test system: NCI-H522 lung
SF-268 CNS = test system: SF-268 CNS
RPMI-8226 leukemia = test system: RPMI-8226 leukemia
MOLT-4 leukemia = test system: MOLT-4 leukemia
SN12C renal = test system: SN12C renal
SF-539 CNS = test system: SF-539 CNS
HCC-2998 colon = test system: HCC-2998 colon
LOX IMVI melanoma = test system: LOX IMVI melanoma
NCI-H460 lung = test system: NCI-H460 lung
786-0 renal = test system: 786-0 renal
SW-620 colon = test system: SW-620 colon
OVCAR-4 ovarian = test system: OVCAR-4 ovarian

C=CC(=O)N1CC[C@H](n2nc(C#Cc3cc(OC)cc(OC)c3)c3c(N)ncnc32)C1 gave a GI50 (UO-31 renal) of 1320 nM, a TGI (UO-31 renal) greater than 100 µM and a GI50 (SK-MEL-28 melanoma) of 21.9 µM. For the same compound, the TGI (SK-MEL-28 melanoma) was greater than 100 µM, the GI50 (TK-10 renal) was 4.03 µM and the TGI (TK-10 renal) was greater than 100 µM. It also gave a GI50 (RXF 393 renal) of 1060 nM, a TGI (RXF 393 renal) of 4.48 µM and a GI50 (U251 CNS) of 6.38 µM. It also gave a TGI (U251 CNS) greater than 100 µM, a GI50 (MDA-MB-435) of 10.6 µM and a TGI (MDA-MB-435) greater than 100 µM. It also gave a GI50 (NCI-H23 lung) of 17.5 µM, a TGI (NCI-H23 lung) greater than 100 µM and a GI50 (SNB-75 CNS) of 343 nM. The TGI (SNB-75 CNS) was 6.91 µM, the GI50 (OVCAR-5 ovarian) was 62.3 µM and the TGI (OVCAR-5 ovarian) was greater than 100 µM. It also gave a GI50 (SF-295 CNS) of 15.5 µM, a TGI (SF-295 CNS) greater than 100 µM and a GI50 (NCI-H226 lung) of 6.42 µM. For the same compound, the TGI (NCI-H226 lung) was greater than 100 µM, the GI50 (SNB-19 CNS) was 7.66 µM and the TGI (SNB-19 CNS) was greater than 100 µM. For the same compound, the GI50 (EKVX NSCLC) was 30.7 µM, the TGI (EKVX NSCLC) was greater than 100 µM and the GI50 (NCI/ADR-RES ovarian) was 12.7 µM. For the same compound, the TGI (NCI/ADR-RES ovarian) was greater than 100 µM, the GI50 (MALME-3M melanoma) was 15.6 µM and the TGI (MALME-3M melanoma) was greater than 100 µM. The GI50 (HOP-92 NSCLC) was 1840 nM, the TGI (HOP-92 NSCLC) was 9.23 µM and the GI50 (MDA-MB-231 breast) was 4.07 µM. For the same compound, the TGI (MDA-MB-231 breast) was greater than 100 µM, the GI50 (DU-145 prostate) was 7.56 µM and the TGI (DU-145 prostate) was greater than 100 µM. The GI50 (OVCAR-3 ovarian) was 4.13 µM, the TGI (OVCAR-3 ovarian) was greater than 100 µM and the GI50 (UACC-257 melanoma) was 10.8 µM. It also gave a TGI (UACC-257 melanoma) greater than 100 µM, a GI50 (PC-3 prostate) of 11.3 µM and a TGI (PC-3 prostate) greater than 100 µM. For the same compound, the GI50 (M14 melanoma) was 15.3 µM, the TGI (M14 melanoma) was greater than 100 µM and the GI50 (UACC-62 melanoma) was 6.95 µM. It also gave a TGI (UACC-62 melanoma) greater than 100 µM, a GI50 (COLO 205 colon) of 15.8 µM and a TGI (COLO 205 colon) greater than 100 µM. It also gave a GI50 (A549 NSCLC) of 9.78 µM, a TGI (A549 NSCLC) greater than 100 µM and a GI50 (HCT-116 colon) of 6.04 µM. For the same compound, the TGI (HCT-116 colon) was greater than 100 µM, the TGI (A498 renal) was 1600 nM and the GI50 (K-562 leukemia) was 13.2 µM. The TGI (K-562 leukemia) was greater than 100 µM, the GI50 (SK-MEL-2 melanoma) was 8.49 µM and the TGI (SK-MEL-2 melanoma) was 52.1 µM. The GI50 (ACHN renal) was 3.76 µM, the TGI (ACHN renal) was greater than 100 µM and the GI50 (HS 578T breast) was 1710 nM. For the same compound, the TGI (HS 578T breast) was 9.82 µM, the GI50 (HCT-15 colon) was 5.53 µM and the TGI (HCT-15 colon) was greater than 100 µM. For the same compound, the GI50 (MCF7 breast) was 3.78 µM, the TGI (MCF7 breast) was greater than 100 µM and the GI50 (HOP-62 NSCLC) was 5.43 µM. It also gave a TGI (HOP-62 NSCLC) greater than 100 µM, a GI50 (SK-MEL-5 melanoma) of 9.57 µM and a TGI (SK-MEL-5 melanoma) of 67.8 µM. It also gave a GI50 (OVCAR-8 ovarian) of 8.36 µM, a TGI (OVCAR-8 ovarian) greater than 100 µM and a GI50 (CAKI-1 renal) of 7.06 µM. For the same compound, the TGI (CAKI-1 renal) was greater than 100 µM, the GI50 (HL-60(TB) leukemia) was 6.23 µM and the TGI (HL-60(TB) leukemia) was 70.4 µM. For the same compound, the GI50 (KM12 colon) was 11.2 µM, the TGI (KM12 colon) was greater than 100 µM and the GI50 (CCRF-CEM leukemia) was 4.57 µM. For the same compound, the TGI (CCRF-CEM leukemia) was greater than 100 µM, the GI50 (BT-549 breast) was 1050 nM and the TGI (BT-549 breast) was 9.56 µM. The GI50 (T-47D breast) was 5.22 µM, the TGI (T-47D breast) was greater than 100 µM and the GI50 (HT29 colon) was 13.9 µM. The TGI (HT29 colon) was greater than 100 µM, the GI50 (IGROV1 ovarian) was 2880 nM and the TGI (IGROV1 ovarian) was greater than 100 µM. The GI50 (NCI-H522 lung) was 7.56 µM, the TGI (NCI-H522 lung) was 37.9 µM and the GI50 (SF-268 CNS) was 4.19 µM. The TGI (SF-268 CNS) was greater than 100 µM, the GI50 (RPMI-8226 leukemia) was 2450 nM and the TGI (RPMI-8226 leukemia) was 33.3 µM. For the same compound, the GI50 (MOLT-4 leukemia) was 5.02 µM, the TGI (MOLT-4 leukemia) was 69.3 µM and the GI50 (SN12C renal) was 4.43 µM. For the same compound, the TGI (SN12C renal) was greater than 100 µM, the GI50 (SF-539 CNS) was 2600 nM and the TGI (SF-539 CNS) was 65.9 µM. The GI50 (HCC-2998 colon) was 17.2 µM, the TGI (HCC-2998 colon) was greater than 100 µM and the GI50 (LOX IMVI melanoma) was 5.72 µM. For the same compound, the TGI (LOX IMVI melanoma) was greater than 100 µM, the GI50 (NCI-H460 lung) was 9.97 µM and the TGI (NCI-H460 lung) was greater than 100 µM. For the same compound, the GI50 (786-0 renal) was 2240 nM, the TGI (786-0 renal) was greater than 100 µM and the GI50 (SW-620 colon) was 15 µM. The TGI (SW-620 colon) was greater than 100 µM, the GI50 (OVCAR-4 ovarian) was 3.47 µM and the TGI (OVCAR-4 ovarian) was greater than 100 µM.
